From US20220395476A1, “DRUG FOR TREATING ARTERY-RELATED DISEASES, AND USE THEREOF” (SHANGHAI INSTITUTE OF MATERIA MEDICA, CHINESE ACADEMY OF …, priority 2019, published 2022)

Legend:
[1] = test system: aneurysm induced by porcine pancreatic elastase in C57BL/6 mice; assay: Aneurysm model induced by porcine pancreatic elastase (PPE model); assay type: in vivo, mouse; details: for diameter of aneurysms: 20 mg/kg intraperitoneal injection from Day 5 for 10 days
Protocol: (§1) The mouse was anesthetized by intraperitoneal injection of 1% pentobarbital sodium at the dose of 20 mg/kg. After the mouse entering anesthesia state, the abdominal hair was shaved off with a razor and further thoroughly depilated with depilatory cream. The abdomen was dried and the mouse was fixed on the operating table. Its body temperature was kept with a heating pad under the body. The abdominal skin was wiped with iodine and deiodined with 75% ethanol. An incision of about 1.5 cm was cut in the middle of the abdomen. The organs were carefully pushed away with tweezers. Then the intestine was divided to the left and right sides with gauze wetted with 3% penicillin-streptomycin. The connective tissue and muscle tissue on the surface of the aorta were carefully separated with tweezers to fully expose the abdominal aorta.
(§2) Sterilized absorbent paper (0.3 cm×0.3 cm) was fully infiltrated in porcine pancreatic elastase (PPE), and then applied on the exposed abdominal aorta for 50 minutes. A gauze wetted with normal saline containing 3% penicillin-streptomycin was placed on the abdominal incision to prevent the abdominal water from excessive loss. After 50 minutes, the absorbent paper on the aorta was carefully taken away. The abdominal cavity was rinsed with normal saline containing 3% penicillin-streptomycin. The peritoneum and skin were sutured with ⅜ suture needle and 5/0 suture line. After suturing, the wound was wiped with iodine and deiodined with 75% ethanol after 1 min. The mouse was placed into a clean feeding cage and can eat and drink freely.
(§3) Sample Fixation, Dehydration, Paraffin Embedding and Slicing 100 ml of formaldehyde, 4 g of sodium dihydrogen phosphate and 6.5 g of disodium hydrogen phosphate were dissolved in 900 ml of distilled water to prepare a polyoxymethylene fixed solution with a volume ratio of 10%. The aortic tissue was fixed in polyoxymethylene fixation solution for 72 hours, then washed with tap water for 4-6 hrs and placed in the dehydrator. The program was set for automatic dehydration, with 75% ethanol for 1.5 hours, 95% ethanol for 1.5 hours, 100% ethanol for 1.5 hours, dimethylbenzene for 1.5 hours and paraffin for 1.5 hours, successively. The paraffin embedding machine was opened 2 hours in advance to melt paraffin, and the temperature was controlled at 60° C. After the paraffin was melted, the dehydrated aortic tissue was embedded in paraffin. It was poured into the embedding box, and the paraffin soaked tissue block was placed into the embedding frame using heated tweezers and gently moved to the cold table. The paraffin block was taken off for slicing after the paraffin was solidified. Before slicing, the paraffin block was put into refrigerator for pre-cooling. After cooling, the paraffin block was cut into continuous 5 μM-thick paraffin sections using the slicer. The sections were unfolded on warm water at 38° C. in a slide spreader, fished with slides coated with APES, and dried naturally for subsequent histopathological staining.
The tissue was fixed, embedded and cut into 4 μM paraffin sections. […]

[2] = test system: aneurysms, intramural hematomas and arterial dissections induced by porcine pancreatic elastase and 1% β-aminopropionitrile in C57BL/6 mice; assay: Aneurysm, intramural hematoma and arterial dissection model induced by porcine pancreatic elastase and 1% β-aminopropionitrile (PPE+BAPN model); assay type: in vivo, mouse; details: for histological analysis of the vessel wall: Day 15
Protocol: as §1
as §2, with “away. And the” for “away. The”, “feeding cage, fed with 1% β-aminopropionitrile (BAPN) feed” for “feeding cage”, “freely. The feed was changed every other day.” for “freely.”
as §3
The tissue was fixed, embedded and cut into 4 μM paraffin sections. The paraffin sections were firstly baked (65° C., 60 minutes), and then dewaxed to aqueous phase (dimethylbenzene for 15 minutes→absolute ethanol for 5 minutes→95% ethanol for 5 minutes→75% ethanol for 5 minutes→running water for 1 minute); stained with hematoxylin for 15 minutes and then rinsed with running water for 4 minutes; differentiated with 1% ethanol hydrochloride for 5 seconds (the differentiation time was adjusted according to the preparation time of differentiation solution) and rinsed with running water for 5 minutes; then stained with eosin for 1 minute and placed in water for 1 minute; dehydrated and then permeated with dimethylbenzene (75% ethanol for 5 minutes→95% ethanol for 5 minutes→absolute ethanol for 5 minutes→dimethylbenzene for 15 minutes) and sealed with neutral gum.

[3] = evaluated Day 15, vs model control
[4] = 100 mg/kg intraperitoneal injection from Day 5 for 10 days
[5] = 100 mg/kg intraperitoneal injection from Day 5 for 10 days, evaluated Day 15
[6] = 100 mg/kg intragastric administration from Day 5 for 10 days, evaluated Day 15
[7] = 50 mg/kg orally via gavage from Day 5 for 10 days, evaluated Day 15

O=C(O)/C=C/c1ccc(O)c(O)c1 [Caffeic acid]
diameter of aneurysms [1, 3]: significantly reduced the diameter and expansion of aneurysm in mouse (P<0.01)

Cc1ccc(C(C)C)cc1O [Carvacrol]
histological analysis of the vessel wall [2, 4]: reduced the thickness of vessel wall and protected the integrity of vessel structure | diameter / expansion of aneurysm (maximum blood vessel diameter of arteriopathy site) [2, 5]: significantly reduced the diameter of infrarenal aneurysm in mouse (P<0.001) | occurrence of intramural hematoma and arterial dissection [2, 5]: reduced the occurrence of infrarenal aneurysm, intramural hematoma and arterial dissection in mouse

O=c1ccc2ccccc2o1 [Coumarin]
diameter of infrarenal aneurysm [2, 6]: significantly reduced the diameter of infrarenal aneurysm in mouse

O=C(O)[C@H](O)Cc1ccc(O)c(O)c1 [Danshensu]
diameter of aneurysms [1, 3]: significantly reduced the diameter and expansion of aneurysm (P<0.01)

C=CCc1ccc(O)c(OC)c1 [Eugenol]
diameter of infrarenal aneurysm [2, 6]: significantly reduced the diameter of infrarenal aneurysm in mouse (P<0.001) | occurrence of infrarenal artery intramural hematoma and arterial dissection [2, 6]: reducing the occurrence of infrarenal artery intramural hematoma and arterial dissection in mouse | diameter / expansion of aneurysm (maximum blood vessel diameter of arteriopathy site) [2, 5]: significantly reduced the diameter of infrarenal aneurysm in mouse (P<0.01) | occurrence of intramural hematoma and arterial dissection [2, 5]: reducing the occurrence of infrarenal artery intramural hematoma and arterial dissection and the arterial rupture in mouse

COc1cc(/C=C/C(=O)O)ccc1O [Ferulic acid]
histological analysis of the vessel wall [2, 4]: protected the integrity of vessel structure, inhibited the degradation of elastic layer, inhibited the occurrence of intramural hematoma | diameter / expansion of aneurysm (maximum blood vessel diameter of arteriopathy site) [2, 5]: significantly reduced the expansion of aneurysm in mouse (P<0.001) | occurrence of intramural hematoma and arterial dissection [2, 5]: significantly reduced the occurrence of intramural hematoma and arterial dissection, and the arterial rupture in mouse | diameter of aneurysms [1, 3]: significantly reduce the diameter of aneurysms in mouse (P<0.001)

COC(=O)[C@@H](Cc1ccc(O)c(O)c1)OC(=O)/C=C/c1ccc(O)c(O)c1 [Methyl rosmarinate]
histological analysis of the vessel wall [2, 4]: reduced the thickness of vessel wall and protected the integrity of vessel structure | occurrence of intramural hematoma and arterial dissection [2, 5]: significantly reduced the occurrence of infrarenal aneurism, intramural hematoma and arterial dissection in mouse

COc1ccc(C(C)=O)c(O)c1 [Paeonol]
histological analysis of the vessel wall [2, 4]: reduced the thickness of vessel wall and protected the integrity of vessel structure | diameter / expansion of aneurysm (maximum blood vessel diameter of arteriopathy site) [2, 5]: significantly reduced the diameter of infrarenal aneurysm in mouse (P<0.001) | occurrence of intramural hematoma and arterial dissection [2, 5]: reduced the occurrence of infrarenal artery intramural hematoma and arterial dissection in mouse

O=C(/C=C/c1ccc(O)c(O)c1)OCCc1ccccc1 [Phenethyl caffeate]
histological analysis of the vessel wall [2, 4]: reduced the thickness of vessel wall and protected the integrity of vessel structure | diameter / expansion of aneurysm (maximum blood vessel diameter of arteriopathy site) [2, 5]: significantly reduced the diameter of artery expansion in mouse (P<0.01) | occurrence of intramural hematoma and arterial dissection [2, 5]: significantly reduced the occurrence of intramural hematoma and arterial dissection, and the arterial rupture in mouse | diameter of infrarenal aneurysms ([1]; 100 mg/kg orally via gavage from Day 5 for 10 days, evaluated Day 15, vs model control): significantly reduced the diameter of infrarenal aneurysms in mouse (P<0.001)

COc1cc(/C=C/C(=O)O)ccc1O [Piperazine ferulate, reference compound]
histological analysis of the vessel wall ([2]; 50 mg/kg orally via gavage from Day 5 for 10 days): reduced the thickness of vessel wall and protected the integrity of vessel structure | expansion of arteries (maximum blood vessel diameter) [2, 7]: significantly reduced the expansion of arteries in mouse (P<0.001) | occurrence of aneurysm, intramural hematoma and arterial dissection [2, 7]: significantly reduced the occurrence of aneurysm, intramural hematoma and arterial dissection

COc1cc2ccc(=O)oc2cc1O [Scopoletin]
diameter of infrarenal aneurysm [2, 6]: significantly reduced the diameter of infrarenal aneurysm in mouse

CC(C)(C)C(=O)Oc1ccc(S(=O)(=O)Nc2ccccc2C(=O)NCC(=O)[O-])cc1.[Na+] [Sivelestat sodium, reference compound]
PPE + BAPN (protective effect) ([2]; aneurysm model induced by porcine pancreatic elastase and 1% β-aminopropionitrile, mouse): ineffective | PPE (protective effect) ([1]; aneurysm model induced by porcine pancreatic elastase, mouse): ineffective

O=C(O)/C=C/c1ccc(O)cc1 [p-Coumaric acid]
diameter of infrarenal aneurysm [2, 6]: significantly reduced the diameter of infrarenal aneurysm in mouse

Aspirin eugenol ester
histological analysis of the vessel wall [2, 4]: reduced the thickness of vessel wall and protected the integrity of vessel structure | occurrence of intramural hematoma and arterial dissection [2, 5]: significantly reduced the occurrence of infrarenal artery intramural hematoma and arterial dissection in mouse (P<0.001)
